Reference: patent US12396994B2, “Compositions for improving physiological function with age” (The Regents Of The University Of Colorado, a body corporate, priority 2017, dated 2025)

Assays:
[1] = test system: human umbilical vein endothelial cells (HUVEC); test: Autophagy induction in HUVEC, Cyto-ID fluorescence microplate detection; type: cell-based; settings: 24 h
Procedure: First, we compiled a library of naturally occurring compounds known to enhance autophagy. Then, we calculated physiologically relevant concentrations of these compounds based on existing data (e.g., previously reported post-prandial plasma concentrations), and we tested each for its ability to induce autophagy at its calculated concentration alone and/or in combination with other candidate compounds. […] In all experiments, autophagy was assessed in human umbilical vein endothelial cells (HUVEC), because of their relevance to vascular physiological measures (in vivo measures, below). Pooled HUVEC cultures obtained from Cascade Biologics were grown in endothelial cell-specific medium (Lonza) at 37° C. in a […] incubator. Third passage cells were seeded into 96-well plates and allowed to reach 70% confluency, at which point candidate treatment compounds or combinations were applied for 24 hours. […] Autophagy was assessed using Enzo Life Sciences Cyto-ID autophagy detection reagents (fluorescence microplate detection of autophagic structures) according to manufacturers instructions on an M5 Spectramax fluorescent plate reader (Molecular Devices). Candidate AEON formulations were designated as AEON-1, -2, etc.
To identify a mixture of food-safe compounds that synergistically activates autophagy (the cellular process of recycling damaged internal components), we screened a library of natural compounds reported to induce autophagy in vitro (in cells). […] Autophagy was assessed via fluorescent microplate assay and confirmed by microscopy in cultured human umbilical vein endothelial cells treated for 24 hours.

cells = settings: reported, trehalose in cells and in mice; cited from earlier work
[2] = low (physiologically relevant) doses, ingredient alone (trehalose 5 mM)

SMILES	Autophagy induction (relative microplate fluorescence) ([1]; established inducers at rapamycin 0.5 μM, trehalose 50 mM (high dose), FIG. 1A)	Autophagy induction (relative microplate fluorescence) [1, 2]	Concentration at which the single agent induces autophagy (cells) [mM]
OC[C@H]1O[C@H](O[C@H]2O[C@H](CO)[C@@H](O)[C@H](O)[C@H]2O)[C@H](O)[C@@H](O)[C@@H]1O [trehalose]	significantly stimulated autophagy	had no effect on autophagy	50 to 100
O=C(O[C@@H]1Cc2c(O)cc(O)cc2O[C@@H]1c1cc(O)c(O)c(O)c1)c1cc(O)c(O)c(O)c1 [epigallocatechin gallate]		had no effect on autophagy	
C=C1CC[C@H](O)C/C1=C/C=C1\CCC[C@]2(C)[C@@H]([C@H](C)CCCC(C)C)CC[C@@H]12 [cholecalciferol]		had no effect on autophagy	
Cn1c(=O)c2c(ncn2C)n(C)c1=O [caffeine]			1 to 20
